Patent publication US5322842A, “Tricyclic benzodiazepine derivates, their preparation, and pharmaceutical compositions containing them” (Fujisawa Pharmaceutical Co., Ltd., priority 1990, dated 1994)

Tested on: CCK receptor (rat pancreatic membranes)
Assay: [125I] CCK-8 binding to rat pancreatic membranes
Conditions: test compound 1×10^-8 M, 50 pM 125I-CCK-8, 30 min, 37° C.
Method: [^125 I ] CCK-8 binding to rat pancreatic membranes
Rats were killed by a blow on the head and bled to death. Whole pancreas (about 0.7 g) was removed, minced in a small quantity of 50 mM Tris-HCl buffer (pH 7.4), and homogenized in 30 vol: of the buffer by a polytron homogenizer. The homogenate was centrifuged at 30000×g (16000 rpm) for 10 min. The pellet was then resuspended in the same buffer by a glass-teflon homogenizer and recentrifuged at 30000×g for 10 min. This procedure (washings) was repeated twice more. The final pellet (membrane) was suspended in incubation medium (see below) so as to obtain a final protein concentration of 2 mg/ml. All manipulations were done at 0°-4° C.
(ii) Receptor binding assay
The composition of incubation medium was as follows: 50 mM Tris-HCl (pH 7.4), 5 mM MgCl2, 5 mM dithiothreitol (DTT), 0.14 mg/ml bacitracin, and 0.2% bovine serum albumin (BSA). Freshly prepared membranes (200 μg protein) were incubated for 30 min under shaking at 37° C. in plastic tubes in 500 μl of incubation medium with 50 pM ^125 I-CCK-8 in the presence or absence of test compound (1×10^-8 M). To determine the non-specific binding, CCK-8 at 1 μM was added. […] After washing the filter with 50 mM Tris-HCl (pH 7.4) buffer containing 0.1% BSA, the radioactivity of the filter was counted. […] The effect of test compound was expressed as % inhibition of specific ^125 I-CCK-8 binding.

`CN1CCN2C(=O)C(NC(=O)c3cc4ccccc4[nH]3)N=C(c3ccccc3F)c3cccc1c32` (racemic) [Example 2, (6RS)-1-methyl-5-oxo-6-(2-indolylcarbonylamino)-8-(2-fluorophenyl)-2,3,5,6-tetrahydro-1H-[1,4]diazepino-[1,7,6-de]quinoxaline] was tested, and the “Inhibition (%) of specific 125I-CCK-8 binding” value was 95.7%.
